Reference: US7592308B2, “F3W variants of the lantibiotic mersacidin and its use” (priority 2004, dated 2009)
Values after ≈ are worked out from the molar mass of the structure shown. Like-named read-outs stand apart in the source and are kept apart here. Square brackets hold non-standard residues; d marks the D form. Ends that are not written are not given here. Dha = C=C(N)C(=O)O

How the values were obtained:
[1] = test system: S. pyogenes 13608; assay type: cell-based, Streptococcus pyogenes
Method: (§1) MIC tests were performed with some of the variants of Example 2 on a range of other organisms. The results are shown in Tables 9 and 10 (figures in μg/ml): […]

[2] = test system: S. pyogenes 16205; assay type: cell-based, Streptococcus pyogenes
Method: as §1

[3] = test system: E. faecium 4147-1; assay type: cell-based, Enterococcus faecium; conditions: 4147-1
Method: as §1

[4] = test system: E. faecium 4147 VRE; assay type: cell-based, Enterococcus faecium; conditions: 4147 VRE
Method: as §1

[5] = test system: E. coli SM1411; assay: MIC, two-fold serial dilution in broth; assay type: cell-based; conditions: Table 8B; MHB + 50 μg/ml calcium; duplicate
Method: (§2) A selection of the variants produced in Example 1 above were tested further for activity against a range of bacteria. Minimum inhibitory concentrations (MICs) for all organisms with the exception of Streptococcus pneumoniae were determined by two-fold serial antibiotic dilutions in Mueller-Hinton broth (MHB) supplemented with 50 μg/ml calcium as calcium chloride dihydrate. Minimum inhibitory concentrations (MICs) for S. pneumoniae were determined by two-fold serial antibiotic dilutions in Brain Heart Infusion (BHI) broth supplemented with 50 μg/ml calcium as calcium chloride dihydrate. Antimicrobial agent stock solutions were prepared and stored according to NCCLS standard M7-A6.
Actively growing broth cultures were diluted to contain […] by adjusting to an absorbance of 0.2-0.3 at 600 nm, equivalent to the McFarland 0.5 standard. They were then diluted a further 1:100 in broth. The assays were performed in duplicate in sterile 96-well microtitre plates in a total volume of 200 μl (160 μl broth, 20 μl antibiotic, 20 μl inoculum) in a concentration range from 64 μg/ml to 0.06 μg/ml. The 12th well of the microtitre plate contained no antimicrobial agent. Vancomycin was used as a reference antibiotic for quality control. […]

[6] = test system: M. luteus; conditions: data of Szekat et al.; cited from earlier work
[7] = test system: S. aureus 1012-13 MRSA; assay type: cell-based, Staphylococcus aureus
Method: as §1

[8] = test system: S. aureus COL MRSA; assay type: cell-based, Staphylococcus aureus
Method: as §1

[9] = test system: S. aureus SG511; assay type: cell-based, Staphylococcus aureus
Method: as §1

[10] = test system: S. aureus CS; assay type: cell-based, Staphylococcus aureus
Method: as §1

[11] = test system: M. luteus 4698; assay type: cell-based, Micrococcus luteus
Method: as §2
(§3) Actively growing broth cultures were diluted to contain […] by adjusting to an absorbance of 0.2-0.3 at 600 nm, equivalent to the McFarland 0.5 standard. They were then diluted a further 1:100 in broth. The assays were performed in duplicate in sterile 96-well microtitre plates in a total volume of 200 μl (160 μl broth, 20 μl antibiotic, 20 μl inoculum) in a concentration range from 64 μg/ml to 0.06 μg/ml. The 12th well of the microtitre plate contained no antimicrobial agent. Vancomycin was used as a reference antibiotic for quality control. Plates were incubated aerobically, shaking, for 18-20 hours at 37° C. with the MIC defined as the lowest concentration of drug that produced no visible growth.

[12] = test system: S. pneumoniae R6; assay type: cell-based, Streptococcus pneumoniae; conditions: Table 8B; BHI broth + 50 μg/ml calcium; duplicate
Method: as §2, §3

[13] = test system: S. epidermidis 11047; assay type: cell-based, Staphylococcus epidermidis; conditions: Table 8B; MHB + 50 μg/ml calcium; duplicate
Method: as §2, §3

[14] = test system: E. faecium 19579; assay: MIC, two-fold serial dilution in broth; assay type: cell-based, Enterococcus faecium; conditions: Table 8A; MHB + 50 μg/ml calcium; duplicate
Method: as §2, §3

[15] = test system: E. faecium 7131121; assay: MIC, two-fold serial dilution in broth; assay type: cell-based, Enterococcus faecium; conditions: Table 8A; MHB + 50 μg/ml calcium; duplicate
Method: as §2, §3

[16] = test system: E. faecalis 29212; assay: MIC, two-fold serial dilution in broth; assay type: cell-based, Enterococcus faecalis; conditions: Table 8A; MHB + 50 μg/ml calcium; duplicate
Method: as §2, §3

[17] = test system: S. aureus SH1000; assay type: cell-based, Staphylococcus aureus; conditions: Table 8A; MHB + 50 μg/ml calcium; duplicate
Method: as §2, §3

[18] = test system: S. aureus R33; assay type: cell-based, Staphylococcus aureus; conditions: Table 8A; MHB + 50 μg/ml calcium; duplicate
Method: as §2, §3

[19] = test system: E. faecium 11.4103A; assay: MIC, two-fold serial dilution in broth; assay type: cell-based, Enterococcus faecium; conditions: Table 8B; MHB + 50 μg/ml calcium; duplicate
Method: as §2, §3

C=C1NC(=O)C2NC(=O)[C@H](CC(C)C)NC(=O)C(NC(=O)[C@@H]3CSC(C)C(NC(=O)[C@H](Cc4ccccc4)NC(=O)C4NC(=O)[C@@H](N)CSC4C)C(=O)N[C@@H](CC(C)C)C(=O)N4CCC[C@H]4C(=O)NCC(=O)NCC(=O)NCC(=O)NCC(=O)N[C@@H](C(C)C)C(=O)N3)C(C)SC[C@H](NC(=O)[C@H](CCC(=O)O)NC1=O)C(=O)N[C@@H]([C@@H](C)CC)C(=O)NC=CSC2C (stereo partly shown) [Mersacidin, mersacidin]
MIC S. pyogenes 13608 [1]: 0.25 µg/mL (≈ 0.137 µM) | MIC S. pyogenes 16205 [2]: 0.5 µg/mL (≈ 0.274 µM) | MIC E. faecium 4147-1 [3]: 64 µg/mL (≈ 35 µM) | MIC E. faecium 4147 VRE [4]: 64 µg/mL (≈ 35 µM) | MIC E. coli SM1411 [5]: >64, >64 μg/ml | MIC against M. luteus [6]: 0.195 mg/L (≈ 0.107 µM) | MIC S. aureus 1012-13 MRSA [7]: 8 µg/mL (≈ 4.38 µM) | MIC S. aureus COL MRSA [8]: 16 µg/mL (≈ 8.76 µM) | MIC S. aureus SG511 [9]: 2 µg/mL (≈ 1.1 µM) | MIC S. aureus CS [10]: 4 µg/mL (≈ 2.19 µM) | MIC M. luteus 4698 [11]; 4698: 0.5 µg/mL (≈ 0.274 µM) | MIC S. pneumoniae R6 [12]: <4, <4 μg/ml

G10N: mersacidin variant (CTFTLPGGGNVCTLT[Dha]ECIC; thioether (positions not given here); not fully specified; UniProt P43683 49-68, looked up, variant G10N)
MIC S. epidermidis 11047 [13]: >64, >64 μg/ml | MIC E. faecium 19579 [14]: >64, >64 μg/ml | MIC E. faecium 7131121 [15]: >64, >64 μg/ml | MIC E. faecalis 29212 [16]: >64, >64 μg/ml | MIC S. aureus SH1000 [17]: >64, >64 μg/ml | MIC S. aureus R33 [18]: >64, >64 μg/ml | MIC S. pneumoniae R6 [12]: >64, >64 μg/ml

G10V: mersacidin variant (CTFTLPGGGVVCTLT[Dha]ECIC; thioether (positions not given here); not fully specified; UniProt P43683 49-68, looked up, variant G10V)
MIC E. faecium 19579 [14]: >64, >64 μg/ml | MIC E. faecium 11.4103A [19]: >64, >64 μg/ml | MIC E. faecalis 29212 [16]: >64, >64 μg/ml | MIC M. luteus 4698 ([11]; Table 8B, MHB + 50 μg/ml calcium, duplicate): <4, <4 μg/ml | MIC S. aureus SH1000 [17]: >64, >64 μg/ml | MIC S. aureus R33 [18]: >64, >64 μg/ml
